The conditions of data set [1]: linear conversion of literature % PPB; cited from earlier work.
Data set [2] addresses T1, Human Serum Albumin (HSA) (Homo sapiens, UniProt P02768).
T1 construct: purchased Chromtech (Cheshire, UK)
The data set is described as follows: Human serum albumin (HSA) binding, immobilised HSA HPLC column. The data set is classed as in vitro ADME. Particulars: for % HSA measured / logK measured: HSA column; for logK measured: derived from the calibration curve; for tR: typical retention time on the HSA column; for logtR: logarithm of typical retention time on the HSA column. How it is done:
Instrument: Agilent HP1100 HPLC instruments were used throughout.
HPLC columns: Chromtech Immobilised HSA HPLC column 50×3 mm was purchased from Chromtech (Cheshire, UK).
Mobile phase and detection: The mobile phase A was 50 mM pH 7.4 ammonium acetate solution, while mobile phase B was 2-Propanol (HPLC grade, Runcorn, UK). The mobile phase flow rate was 1.8 ml/min. The column temperature was kept at 30° C. The gradient profile and run time were the same with each column, the linear gradient from 0 to 30% 2-propanol was applied from 0 to 3 minutes. From 3 to 5 minutes, the mobile phase composition was constant 30% 2-propanol and 70% 50-mM ammonium acetate. From 5 min to 5.2 min the mobile phase composition was change to 100% ammonium acetate buffer only and remained the same until the end of the run. Each separation was stopped after 6 minutes. The column temperature was kept at 30° C.
Detection: Chromatograms were recorded at 230 and 254 nm by a diode array UV absorption detector at room temperature.

Data set [3] deals with T2, human adenosine A3 receptor (Homo sapiens, UniProt P0DMS8).
T2 construct: expressed in transfected cells
T2 sequence (P0DMS8 1-318): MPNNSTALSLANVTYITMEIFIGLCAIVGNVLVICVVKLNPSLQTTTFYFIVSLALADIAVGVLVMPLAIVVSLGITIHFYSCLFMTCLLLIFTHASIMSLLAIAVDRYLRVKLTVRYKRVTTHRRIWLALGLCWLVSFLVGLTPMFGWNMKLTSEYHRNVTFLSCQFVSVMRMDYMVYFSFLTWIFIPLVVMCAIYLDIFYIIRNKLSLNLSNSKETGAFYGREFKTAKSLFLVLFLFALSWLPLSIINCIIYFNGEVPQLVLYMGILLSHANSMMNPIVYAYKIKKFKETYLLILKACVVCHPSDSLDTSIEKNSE
The data set is described as follows: Agonist activity at human adenosine A3 receptor, CHO cells with cAMP response element SPAP reporter. The data set is classed as cell-based. Particulars: forskolin enhanced cAMP. Here is the method:
The adenosine A3 agonist potency of compounds are determined using Chinese Hamster ovary cells stably expressing the human adenosine A3 receptor and the cAMP response element SPAP (secreted placental alkaline phosphatase). Increasing the level of cAMP in theses cell causes an increase in the transcription of the SPAP reporter gene, which can be quantified by addition of a colour substrate to measure a coloured product. The adenosine A3 receptor is Gi linked so levels cAMP have to be enhanced by forskolin in these cells. Activation of the adenosine A3 receptor is determined by the reduction of forskolin enhanced cAMP, which is measured as a decrease in the coloured product. The Adenosine A3 activity of the test compounds is expressed as a ratio to that of the non-selective adenosine receptor agonist, N-ethyl carboxamide adenosine (NECA).

In a further data set the test system is neutrophilia. The data set can be described thus: Inhibition of LPS-induced lung neutrophilia in rats, intratracheal dosing. As to conditions: rat, retested at 30 ug/kg, similar method. The data set is classed as in vivo. How it is done:
Rats are lightly anaesthetized (isofluorane in oxygen) and vehicle or test substance administered intratracheally using a cannula placed trans-orally (200 μl). Following intratracheal administration, rats are returned to their cages and allowed free access to both food and water. Thirty min later, rats are placed in a perspex box and exposed to aerosolized lipopolysaccharide (LPS) (0.15 mg/ml, serotype 0127:B8) for 15 min (Devilbiss nebuliser) at a flow rate of 15 ml/min. Animals are killed 4 h later with pentobarbital (250 mg/kg i.p.). The lungs are lavaged using 3 aliquots (5 ml) of phosphate-buffered saline (Sigma catalogue no. P3813, pH 7.4) containing heparin (10 units/ml); recovered cells are pooled (pooled volume of recovered fluid will be recorded) and centrifuged (1300 rpm for 7 min). The supernatant is removed by aspiration and the cell pellet resuspended in 1 ml phosphate-buffered saline. Total cells are counted (Sysmex Microcell Counter F-500, TOA Medical Electronics Ltd., Japan). Smears are made by diluting recovered fluid (to approximately 10^6 cells/ml) and spinning an aliquot (100 μl) in a centrifuge (Cytospin, Shandon, UK). […] A total of 300 cells per smear are counted by light microscopy under oil immersion (×1000).

T1 sequence (P02768 25-609): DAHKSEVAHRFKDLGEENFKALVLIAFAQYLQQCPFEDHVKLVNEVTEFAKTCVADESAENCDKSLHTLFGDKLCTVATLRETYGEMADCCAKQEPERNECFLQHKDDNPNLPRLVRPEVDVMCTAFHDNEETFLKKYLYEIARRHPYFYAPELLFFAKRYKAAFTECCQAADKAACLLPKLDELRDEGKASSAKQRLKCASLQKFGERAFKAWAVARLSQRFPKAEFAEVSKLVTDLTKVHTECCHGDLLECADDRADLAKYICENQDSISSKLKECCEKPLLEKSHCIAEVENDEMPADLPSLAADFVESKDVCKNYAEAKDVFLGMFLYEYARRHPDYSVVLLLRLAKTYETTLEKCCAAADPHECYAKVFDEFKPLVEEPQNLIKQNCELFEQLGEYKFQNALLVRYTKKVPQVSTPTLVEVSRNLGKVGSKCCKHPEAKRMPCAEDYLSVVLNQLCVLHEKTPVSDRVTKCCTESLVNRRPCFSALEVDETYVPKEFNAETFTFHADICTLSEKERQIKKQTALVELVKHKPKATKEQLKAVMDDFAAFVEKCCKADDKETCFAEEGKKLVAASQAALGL

For `CNC(=C[N+](=O)[O-])NCCSCc1csc(CN(C)C)n1` [Nizatidine], in data set [1], the “lit logK” value was −0.28. In data set [2] (pH 7.4), the “% HSA measured” value was 24.6%. In data set [2], this compound came in with a logK measured of −0.49 and a tR of 0.40.

As to `O=C1CN=C(c2ccccn2)c2cc(Br)ccc2N1` [Bromazepam], the “lit logK” value in data set [1] is on record as 0.17. Further, in data set [2] (pH 7.4), the “% HSA measured” value came to 74.7%. In data set [2], this compound returned a logK measured of 0.45, a logtR of 0.06 and a tR of 1.16.

For `CCn1nnc([C@H]2O[C@@H](n3cnc4c(N[C@H]5CC[C@H](Nc6ccnc(N[C@H]7CC[C@H](N)CC7)n6)CC5)nc(N[C@H]5CC[C@H](N)CC5)nc43)[C@@H](O)[C@H]2O)n1.O=CO.O=CO.O=CO` [Example 10, (2R,3S,4R,5R)-2-(2-[(trans-4-aminocyclohexyl)amino]-6-{[trans-4-({2-[(trans-4-aminocyclohexyl)amino]-4-pyrimidinyl}amino)cyclohexyl]-amino}-9H-purin-9-yl)-5-(2-ethyl-2H-tetrazol-5-yl)tetrahydro-3,4-furandiol, triformate], in data set [3], the “Adenosine A3 agonist activity” value is “functionally inactive over the concentration range of the assay”.

For the compound `CN1C(C(=O)Nc2ccccn2)=C(O)c2ccccc2S1(=O)=O` [Piroxicam], the “lit logK” value in data set [1] is reported as 1.16. Also, the “% HSA measured” value in data set [2] (pH 7.4) is reported as 96.6%. In data set [2], this compound registered a logK measured of 1.34, a logtR of 0.49 and a tR of 3.1.

For `NC(=O)N1c2ccccc2C=Cc2ccccc21` [Carbamazepine], in data set [1], the “lit logK” value is recorded as 0.46. The “% HSA measured” value in data set [2] (pH 7.4) came to 80.5%. In data set [2], this compound returned a logK measured of 0.59, a logtR of 0.13 and a tR of 1.35.

In turn, `CCn1nnc([C@H]2O[C@@H](n3cnc4c(N[C@H]5CC[C@H](Nc6nc(NCCCCN7CCCC7)nc7[nH]cnc67)CC5)nc(NCCCCN5CCCC5)nc43)[C@H](O)[C@@H]2O)n1` [Example 4, (2R,3S,4R,5R)-2-(2-ethyl-2H-tetrazol-5-yl)-5-[2-{[4-(1-pyrrolidinyl)butyl]amino}-6-({trans-4-[(2-{[4-(1-pyrrolidinyl)butyl]amino}-1H-purin-6-yl)amino]cyclohexyl}amino)-9H-purin-9-yl]tetrahydro-3,4-furandiol, triformate] had an inhibition of neutrophilia in the data set with neutrophilia of more than 50%.

For the compound `O=C(O)Cc1ccccc1Nc1c(Cl)cccc1Cl` [Diclofenac], in data set [1], the “lit logK” value is 1.92.

As to `COC(=O)C1=C(C)NC(C)=C(C(=O)OCCN(C)Cc2ccccc2)C1c1cccc([N+](=O)[O-])c1` (stereo not drawn) [Nicardipine], the “% HSA measured” value in data set [2] (pH 7.4) worked out at 95.0%. Besides, in data set [2], the logK measured was 1.22, the logtR is given as 0.43 and the tR is reported as 2.7.

As for `CCCC1O[C@@H]2C[C@H]3[C@@H]4CCC5=CC(=O)C=C[C@]5(C)[C@H]4[C@@H](O)C[C@]3(C)[C@]2(C(=O)CO)O1` (stereo partly drawn) [Budesonide], the “lit logK” value in data set [1] is 0.83. Further, the “% HSA measured” value in data set [2] (pH 7.4) is on record as 85.6%. Also, in data set [2], the logK measured amounted to 0.75, the logtR is 0.20 and the tR amounted to 1.6.

As to `CCn1nnc(C2OC(n3cnc4c(NC5CCC(Nc6ccnc(NCCc7nc[nH]c7C)n6)CC5)nc(NCCc5nc[nH]c5C)nc43)C(O)C2O)n1.O=CO.O=CO` [Example 8, (2R,3S,4R,5R)-2-(2-ethyl-2H-tetrazol-5-yl)-5-[2-{[2-(5-methyl-1H-imidazol-4-yl)ethyl]amino}-6-({trans-4-[(2-{[2-(5-methyl-1H-imidazol-4-yl)ethyl]amino}-4-pyrimidinyl)amino]cyclohexyl}-amino)-9H-purin-9-yl]tetrahydro-3,4-furandiol, diformate], the HSA binding result in data set [2] (pH 7.4) was “greater than 90%”. For the same compound, the “Adenosine A3 agonist activity” value in data set [3] is “functionally inactive over the concentration range of the assay”.

These data come from patent publication US7985740B2, “Purine derivatives as agonists of the adenosine A2A receptor” (Glaxo Group Limited, priority 2005, dated 2011).
